Source: ChEMBL document CHEMBL2086270, “Rational Design, Synthesis, and SAR of a Novel Thiazolopyrimidinone Series of Selective PI3K-beta Inhibitors” (ACS Med Chem Lett, 2012)

What was measured:
[1] = molecular target: T1, Phosphatidylinositol 4,5-bisphosphate 3-kinase catalytic subunit beta isoform (Homo sapiens, UniProt P42338); assay: Inhibition of PI3K beta by continuous TR-FRET assay
[2] = molecular target: T2, Phosphatidylinositol 4,5-bisphosphate 3-kinase catalytic subunit delta isoform (Homo sapiens, UniProt O00329); assay: Inhibition of PI3K delta by continuous TR-FRET assay
T2 sequence (O00329 whole entry): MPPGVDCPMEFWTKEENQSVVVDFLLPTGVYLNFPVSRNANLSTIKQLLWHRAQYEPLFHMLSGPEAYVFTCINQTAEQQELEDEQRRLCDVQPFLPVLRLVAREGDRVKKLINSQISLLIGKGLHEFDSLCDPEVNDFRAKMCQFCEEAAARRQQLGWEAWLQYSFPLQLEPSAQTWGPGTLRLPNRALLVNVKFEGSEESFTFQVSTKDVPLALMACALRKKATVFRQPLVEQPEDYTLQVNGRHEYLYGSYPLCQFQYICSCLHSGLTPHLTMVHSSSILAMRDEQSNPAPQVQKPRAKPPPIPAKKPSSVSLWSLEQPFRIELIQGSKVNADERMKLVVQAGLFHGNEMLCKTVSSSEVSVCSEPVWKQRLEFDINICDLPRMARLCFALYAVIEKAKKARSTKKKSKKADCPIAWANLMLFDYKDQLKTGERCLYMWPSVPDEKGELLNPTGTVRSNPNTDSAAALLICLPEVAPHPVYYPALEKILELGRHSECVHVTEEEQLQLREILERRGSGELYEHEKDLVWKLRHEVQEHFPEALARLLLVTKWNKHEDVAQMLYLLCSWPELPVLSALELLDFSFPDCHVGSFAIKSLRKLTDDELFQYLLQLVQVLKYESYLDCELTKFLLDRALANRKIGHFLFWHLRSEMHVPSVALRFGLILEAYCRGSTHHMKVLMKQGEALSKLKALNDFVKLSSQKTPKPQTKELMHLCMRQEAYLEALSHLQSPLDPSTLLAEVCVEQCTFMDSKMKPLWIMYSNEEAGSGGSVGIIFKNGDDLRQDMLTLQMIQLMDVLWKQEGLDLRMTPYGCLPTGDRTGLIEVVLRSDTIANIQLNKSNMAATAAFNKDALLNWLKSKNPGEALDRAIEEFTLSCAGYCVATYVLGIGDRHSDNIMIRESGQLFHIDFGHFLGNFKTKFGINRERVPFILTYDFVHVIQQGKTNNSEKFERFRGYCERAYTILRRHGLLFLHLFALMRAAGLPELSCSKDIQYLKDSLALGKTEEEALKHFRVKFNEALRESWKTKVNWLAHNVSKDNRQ

[3] = molecular target: Phosphatidylinositol 4,5-bisphosphate 3-kinase catalytic subunit alpha isoform (Homo sapiens, UniProt P42336); assay: Inhibition of PI3K alpha by continuous TR-FRET assay
[4] = molecular target: Phosphatidylinositol 4,5-bisphosphate 3-kinase catalytic subunit gamma isoform (Homo sapiens, UniProt P48736); assay: Inhibition of PI3K gamma by continuous TR-FRET assay
MDA-MB-468 = assay: Antiproliferative activity against PTEN-deficient human MDA-MB-468 cells; assay type: functional
[5] = molecular target: T1, Phosphatidylinositol 4,5-bisphosphate 3-kinase catalytic subunit beta isoform; assay: Inhibition of PI3K beta in human PTEN-deficient MDA-MB-468 cells assessed as inhibition of Akt Ser473 phosphorylation; assay type: cell-based
[6] = Clearance in CD mouse at 0.3 mg/kg, iv; assay type: ADME, organism-based; parameters: dose 0.3 mg/kg, route intravenous; conditions: in vivo
[7] = Oral bioavailability in CD mouse at 100 mg/kg; assay type: ADME, organism-based; conditions: in vivo
[8] = Volume of distribution at steady state in CD mouse at 0.3 mg/kg, iv; assay type: ADME, organism-based; parameters: dose 0.3 mg/kg, route intravenous; conditions: in vivo, read-out: Vdss
[9] = Half life in CD mouse at 0.3 mg/kg, iv; assay type: ADME, organism-based; parameters: dose 0.3 mg/kg, route intravenous; conditions: in vivo
Mus musculus = assay: Dose normalized AUC in CD mouse at 100 mg/kg, po; assay type: ADME, organism-based; parameters: dose 100 mg/kg, route oral; conditions: in vivo

Chain of Phosphatidylinositol 4,5-bisphosphate 3-kinase catalytic subunit gamma isoform (P48736 whole entry, canonical isoform): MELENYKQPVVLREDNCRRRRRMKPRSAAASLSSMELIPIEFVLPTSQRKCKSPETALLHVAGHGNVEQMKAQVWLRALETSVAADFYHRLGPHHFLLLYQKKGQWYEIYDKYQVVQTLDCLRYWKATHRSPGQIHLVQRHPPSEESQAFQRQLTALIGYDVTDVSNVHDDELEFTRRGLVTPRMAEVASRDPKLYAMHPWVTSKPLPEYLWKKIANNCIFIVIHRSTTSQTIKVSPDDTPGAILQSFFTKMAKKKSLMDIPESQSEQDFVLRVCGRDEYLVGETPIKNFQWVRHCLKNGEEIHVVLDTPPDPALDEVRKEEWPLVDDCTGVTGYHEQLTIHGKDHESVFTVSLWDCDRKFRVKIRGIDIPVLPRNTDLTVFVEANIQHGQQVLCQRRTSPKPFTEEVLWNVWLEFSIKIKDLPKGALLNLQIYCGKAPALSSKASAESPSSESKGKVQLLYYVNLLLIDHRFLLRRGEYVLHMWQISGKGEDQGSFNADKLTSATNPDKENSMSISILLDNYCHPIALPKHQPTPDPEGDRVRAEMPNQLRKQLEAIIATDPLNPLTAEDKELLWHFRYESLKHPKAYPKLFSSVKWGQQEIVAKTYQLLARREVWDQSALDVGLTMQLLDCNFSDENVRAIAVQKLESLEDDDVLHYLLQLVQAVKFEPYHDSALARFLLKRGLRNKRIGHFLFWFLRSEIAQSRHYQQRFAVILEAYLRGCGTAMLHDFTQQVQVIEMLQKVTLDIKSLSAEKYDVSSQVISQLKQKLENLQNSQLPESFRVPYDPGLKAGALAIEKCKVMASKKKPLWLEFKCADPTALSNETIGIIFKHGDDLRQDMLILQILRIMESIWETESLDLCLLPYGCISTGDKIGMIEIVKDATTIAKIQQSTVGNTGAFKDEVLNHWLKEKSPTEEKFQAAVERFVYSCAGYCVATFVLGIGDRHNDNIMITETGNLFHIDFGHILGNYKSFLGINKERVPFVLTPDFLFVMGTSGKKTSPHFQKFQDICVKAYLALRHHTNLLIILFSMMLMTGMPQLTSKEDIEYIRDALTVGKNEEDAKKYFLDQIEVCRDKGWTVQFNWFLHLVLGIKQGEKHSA
T1 sequence (P42338 whole entry, canonical isoform): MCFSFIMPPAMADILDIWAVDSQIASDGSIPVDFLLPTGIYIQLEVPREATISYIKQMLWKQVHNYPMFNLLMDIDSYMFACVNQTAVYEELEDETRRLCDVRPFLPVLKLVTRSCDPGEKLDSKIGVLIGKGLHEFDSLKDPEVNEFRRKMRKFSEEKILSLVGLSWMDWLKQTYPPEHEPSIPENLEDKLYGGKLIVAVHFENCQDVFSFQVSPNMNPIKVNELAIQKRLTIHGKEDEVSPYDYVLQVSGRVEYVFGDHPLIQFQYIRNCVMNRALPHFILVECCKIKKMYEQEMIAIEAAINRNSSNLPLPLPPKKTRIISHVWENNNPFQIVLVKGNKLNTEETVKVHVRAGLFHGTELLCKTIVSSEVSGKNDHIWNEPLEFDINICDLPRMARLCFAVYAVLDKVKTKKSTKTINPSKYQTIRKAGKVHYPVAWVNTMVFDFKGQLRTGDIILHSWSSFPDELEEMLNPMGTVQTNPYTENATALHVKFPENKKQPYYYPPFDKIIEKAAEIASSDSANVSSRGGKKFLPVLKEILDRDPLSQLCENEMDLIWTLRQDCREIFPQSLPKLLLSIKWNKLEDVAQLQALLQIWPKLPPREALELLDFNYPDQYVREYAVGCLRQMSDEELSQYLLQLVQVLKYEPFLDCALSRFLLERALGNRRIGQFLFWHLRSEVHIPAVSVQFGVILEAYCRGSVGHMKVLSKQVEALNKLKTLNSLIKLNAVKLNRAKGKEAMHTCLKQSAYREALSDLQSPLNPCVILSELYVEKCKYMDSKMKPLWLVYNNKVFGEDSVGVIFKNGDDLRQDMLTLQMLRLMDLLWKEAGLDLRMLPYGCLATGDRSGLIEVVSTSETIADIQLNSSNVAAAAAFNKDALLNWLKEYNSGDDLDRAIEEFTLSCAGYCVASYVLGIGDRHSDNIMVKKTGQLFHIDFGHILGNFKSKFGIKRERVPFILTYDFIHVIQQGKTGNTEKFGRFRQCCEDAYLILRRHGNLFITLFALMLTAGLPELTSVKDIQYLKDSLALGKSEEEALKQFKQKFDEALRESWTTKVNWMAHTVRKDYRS
Chain of Phosphatidylinositol 4,5-bisphosphate 3-kinase catalytic subunit alpha isoform (P42336 whole entry, canonical isoform): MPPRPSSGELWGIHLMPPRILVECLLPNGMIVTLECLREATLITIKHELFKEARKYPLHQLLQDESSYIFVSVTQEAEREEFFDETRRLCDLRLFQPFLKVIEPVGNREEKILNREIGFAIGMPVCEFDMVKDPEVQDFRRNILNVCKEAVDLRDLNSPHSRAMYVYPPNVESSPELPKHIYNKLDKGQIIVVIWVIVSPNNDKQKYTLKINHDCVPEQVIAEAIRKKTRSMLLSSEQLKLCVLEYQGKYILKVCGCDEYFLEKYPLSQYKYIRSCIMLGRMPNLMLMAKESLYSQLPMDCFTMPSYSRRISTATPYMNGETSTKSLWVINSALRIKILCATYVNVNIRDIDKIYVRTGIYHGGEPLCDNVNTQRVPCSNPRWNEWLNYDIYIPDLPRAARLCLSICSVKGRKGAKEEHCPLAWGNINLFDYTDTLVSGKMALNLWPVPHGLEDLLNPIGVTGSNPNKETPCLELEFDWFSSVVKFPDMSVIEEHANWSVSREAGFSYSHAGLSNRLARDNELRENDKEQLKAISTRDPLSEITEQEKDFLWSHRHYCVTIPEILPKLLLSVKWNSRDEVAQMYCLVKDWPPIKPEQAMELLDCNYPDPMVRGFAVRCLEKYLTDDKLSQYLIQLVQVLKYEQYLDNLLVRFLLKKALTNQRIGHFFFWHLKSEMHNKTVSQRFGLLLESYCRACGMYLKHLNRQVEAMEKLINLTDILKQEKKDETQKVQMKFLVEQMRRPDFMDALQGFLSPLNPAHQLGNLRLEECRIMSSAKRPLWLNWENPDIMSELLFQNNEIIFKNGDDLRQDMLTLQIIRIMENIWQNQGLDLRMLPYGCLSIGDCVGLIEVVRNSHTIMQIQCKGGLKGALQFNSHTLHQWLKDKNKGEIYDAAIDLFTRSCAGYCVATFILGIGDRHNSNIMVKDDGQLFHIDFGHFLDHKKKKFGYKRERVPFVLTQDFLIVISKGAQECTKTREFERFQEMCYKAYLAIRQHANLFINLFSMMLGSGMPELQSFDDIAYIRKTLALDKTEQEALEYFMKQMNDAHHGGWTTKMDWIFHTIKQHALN

SMILES	IC50 [1]	IC50 [2]	IC50 [3]	IC50 [4]	GI50 (MDA-MB-468)	EC50 [5]	clearance [6]	bioavailability [7]	Vd [8]	half-life [9]	AUC/dose (Mus musculus)
CC(c1ccccc1)n1cnc(=O)c2sc(N3CCOCC3)nc21 (stereo not drawn)	400 nM	500 nM	> 4000 nM	5000 nM							
Cc1c(Cl)cccc1Cn1c(=S)[nH]c(=O)c2sc(N3CCOCC3)nc21	5 nM	50 nM	2000 nM	> 3200 nM							
Cc1c(Cl)cccc1Cn1c(C)nc(=O)c2sc(N3CCOCC3)nc21	0.5 nM	10 nM	2000 nM	1000 nM	32 nM	19 nM					
Cc1c(Cn2c(-c3ccccc3)nc(=O)c3sc(N4CCOCC4)nc32)cccc1C(F)(F)F	50 nM	500 nM	> 3200 nM	4000 nM							
O=c1ncn(Cc2ccccc2Cl)c2nc(N3CCOCC3)sc12	160 nM	> 790 nM	2500 nM	7900 nM							
Cc1c(Cn2c(C3CC3)nc(=O)c3sc(N4CCOCC4)nc32)cccc1C(F)(F)F	0.5 nM	16 nM	1300 nM	1000 nM	43 nM	9 nM	48.6 mL/min/kg	54%	2.6 L/kg	0.75 h	192 ng/(hr.mL.mg.kg)
Cc1c(Cn2c(CO)nc(=O)c3sc(N4CCOCC4)nc32)cccc1C(F)(F)F	0.2 nM	3 nM	630 nM	250 nM							
O=c1ncn(Cc2ccsc2Cl)c2nc(N3CCOCC3)sc12	790 nM	2500 nM	3200 nM	4000 nM							
Cc1c(Cl)cccc1Cn1c(SCC(=O)O)nc(=O)c2sc(N3CCOCC3)nc21	0.05 nM	2 nM	400 nM	160 nM							
Cc1c(Cl)cccc1Cn1cnc(=O)c2sc(N3CCOCC3)nc21	3 nM	40 nM	2500 nM	2500 nM							
Cc1ccccc1Cn1cnc(=O)c2sc(N3CCOCC3)nc21	25 nM	250 nM	2500 nM	2500 nM							
Cc1c(Cn2c(CN)nc(=O)c3sc(N4CCOCC4)nc32)cccc1C(F)(F)F	3 nM	160 nM	> 2500 nM	> 7900 nM							
CCc1nc(=O)c2sc(N3CCOCC3)nc2n1Cc1cccc(C(F)(F)F)c1C	0.5 nM	13 nM	> 4000 nM	1300 nM	23 nM	16 nM					
Cc1c(Cl)cccc1Cn1c(=O)[nH]c(=O)c2sc(N3CCOCC3)nc21	8 nM	500 nM	50000 nM	> 6300 nM							
Cc1c(Cn2cnc(=O)c3sc(N4CCOCC4)nc32)cccc1C(F)(F)F	3 nM	63 nM	4000 nM	1600 nM							
O=c1ncn(Cc2cccc(Cl)c2)c2nc(N3CCOCC3)sc12	79 nM	320 nM	> 3200 nM	> 790 nM							
Cc1c(Cl)cccc1Cn1c(CO)nc(=O)c2sc(N3CCOCC3)nc21	0.1 nM	2 nM	500 nM	250 nM	8 nM	6 nM	29.4 mL/min/kg	21%	3.35 L/kg	1.9 h	264 ng/(hr.mL.mg.kg)
Cc1c(Cl)cccc1Cn1c(N)nc(=O)c2sc(N3CCOCC3)nc21	0.2 nM	3 nM	250 nM	500 nM	26 nM	3 nM					
Cc1c(Cn2c(Cc3ccccc3)nc(=O)c3sc(N4CCOCC4)nc32)cccc1C(F)(F)F	3 nM	63 nM	2500 nM	2000 nM							
COc1nc(=O)c2sc(N3CCOCC3)nc2n1Cc1cccc(Cl)c1C	0.3 nM	10 nM	1600 nM	400 nM	21 nM	6 nM					
CSc1nc(=O)c2sc(N3CCOCC3)nc2n1Cc1cccc(Cl)c1C	0.3 nM	10 nM	2000 nM	2500 nM							
O=c1ncn(Cc2ccccc2)c2nc(N3CCOCC3)sc12	320 nM	2000 nM	7900 nM	6300 nM							
O=c1ncn(Cc2cccc(Cl)c2Cl)c2nc(N3CCOCC3)sc12	10 nM	79 nM	1000 nM	1300 nM							
O=c1ncn(CCc2ccccc2)c2nc(N3CCOCC3)sc12	790 nM	1000 nM	> 2000 nM	3200 nM							
